One data set has as its system Wistar rats. Description: 6 months oral gavage in Wistar rats. In kind it is in vivo. As to conditions: 100, 300 and 600 mg/kg/day gavage, RD, vs vehicle. The method, then: 8-10 weeks old Wistar male and female rats were treated by oral gavage with vehicle or test material at 100, 300 or 600 mg/kg/day for 6 months.
The test system of data set [1] is AMPK in human hepatocytes. Description: AMPK activation assay in human hepatocytes. In kind it is cell-based. As to conditions: cells preferentially expressing β2 subunit. The method, then:
(§1) All cell lines were lysed in 0.1 M Tris-HCl, pH 6.8, 2% SDS, 10 mM sodium fluoride (SIGMA #S7920), 10 mM β-glycerophosphate (SIGMA #G6376), and 1 mM sodium vanadate (SIGMA #72060) and supernatant collected after 1 minute at 14,000 rpm. Islets (human and mouse) were lysed in 0.1 M Tris-HCl, pH 6.8, 2% SDS, protease inhibitor (Roche #04 693 124 001) and phosphatase inhibitor (Roche #04 906 837 001). Right calf muscle, heart, iWAT, and interscapular BAT was crushed in a pestle using liquid nitrogen and homogenised in ice cold RIPA buffer (150 mM sodium chloride (SIGMA #S7653), 1.0% NP40 (USB), 0.5% sodium deoxycholate (SIGMA #D6750), 0.1% SDS, 50 mM Tris pH 8.0, 20 mM sodium pyrophosphate (SIGMA #71515), 10 mM sodium fluoride, 10 mM β-glycerolphosphate, 1 mM sodium vanadate and protease inhibitor cocktail (Roche #04693124001), 1 tablet/10 ml lysis buffer). The supernatant was collected after 2 min at 14,000 rpm. This procedure was repeated until all fat was eliminated and the supernatant was clear, at 4° C. Samples were analysed on 4-15% polyacrylamide gels. Values were normalised toward AMPKα, β-Actin, GAPDH or the respective non-phosphorylated counterpart.
(§2) Table 3 contains origin of cell lines, growth conditions and settings for activation of AMPK via the test material. […]

The next data set relates to AMPK in HeLa cells. Description: AMPK activation assay in HeLa cells (LKB1 null). In kind it is cell-based, human. As to conditions: LKB1 null cells; 2.5, 5 or 10 μM, 4 hours. The procedure: as §1, §2
Another data set has as its target T1, PP2Ca (Homo sapiens, UniProt P35813).
T1 construct: purchased Abcam ab51205
As to the kind of experiment: PP2C phosphatase activity assay. As to conditions: 5, 10 or 20 μM. In kind it is biochemical. The procedure:
3 ng/μl PP2Ca (Abcam ab51205) and 5, 10 or 20 μM test material in buffer (50 mM Tris-HCL pH 7.5, 0.1 mM EDTA, 0.5 mM DTT, 5 mM MgCl2) was used in the Sensolyte FDP protein phosphatase assay kit (Anaspec #71100) according to the manufacturer's instructions to measure the activity of PP2Ca. The fluorescence intensity was measured in a Bio Tek Synergy H4 multi-mode microplate reader.

The next data set deals with aged, lean B6 mice. Description: Treadmill endurance test. In kind it is in vivo. As to conditions: 20 mg/kg/day gavage, 30 days. The method, then:
One week prior to the test mice went through a familiarization session of 5 minutes on the treadmill. Running protocol as follows: 15 minutes at 18.8 m/minute, 5 minutes at 24.4 m/minute and 27.1 m/minute until exhaustion. At exhaustion, blood lactate levels were measured using a lactate test meter (Arkray).

In a further data set the test system is conscious beagle dogs. Description: Cardiovascular safety pharmacology study using radiotelemetry in conscious beagle dogs. In kind it is in vivo. As to conditions: single oral doses 60, 180, 540 mg/kg. The method, then:
Telemetry analyses was performed by CiToxLAB North America (Laval, Quebec, Canada) in adult male beagle dogs, selected from CiToxLAB North America Dog Telemetry Colony, which had previously undergone surgery for telemetry transmitter implantation to monitor the arterial blood pressure, electrocardiogram, body temperature and locomotor activity (Data Science International, Model D70-PCT). All surgical procedures were performed in accordance with relevant Standard Operating Procedures. A telemetry transmitter was placed between the internal abdominal oblique muscle and the aponeurosis of the transverses abdominis of each animal. The pressure catheter was inserted into the femoral artery and the biopotential leads subcutaneously in a Lead II configuration. Test material was gavaged as a suspension at 60, 180, or 540 mg/kg.

The test system of data set [2] is AMPK in Wi-38 human lung fibroblast cells. As to the kind of experiment: AMPK activation assay in Wi-38 cells (immunoblot). In kind it is cell-based. As to conditions: 2.5, 5 or 10 μM, 16 hours; dose-dependent. The procedure:
as §1, §2
Background: Immunoblotting shows a protein as a band on a membrane.

T1 sequence (P35813 whole entry): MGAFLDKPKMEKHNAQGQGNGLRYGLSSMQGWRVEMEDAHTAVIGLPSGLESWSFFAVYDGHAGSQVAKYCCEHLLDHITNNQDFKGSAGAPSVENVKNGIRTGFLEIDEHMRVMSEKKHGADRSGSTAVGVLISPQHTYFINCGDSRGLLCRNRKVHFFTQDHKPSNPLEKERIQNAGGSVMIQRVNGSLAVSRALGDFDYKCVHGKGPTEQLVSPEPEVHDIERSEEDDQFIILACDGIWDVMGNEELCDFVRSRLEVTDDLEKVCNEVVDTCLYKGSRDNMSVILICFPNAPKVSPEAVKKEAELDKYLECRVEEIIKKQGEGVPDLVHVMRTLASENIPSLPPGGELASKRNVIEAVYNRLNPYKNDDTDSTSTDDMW

Turning to `O=C(Nc1nc(=O)n(Cc2ccc(Cl)cc2)s1)c1ccc(Cl)cc1` [test material, 4-chloro-N-[2-[(4-chlorophenyl)methyl]-3-oxo-1,2,4-thiadiazol-5-yl]benzamide], in the data set on Wistar rats, the heart/brain weight result is listed as “did not show increased heart/brain weight”. Moreover, the pAMPK result in data set [1] is reported as “increased pAMPK”. Besides, the “basal levels of pAMPK and pACC” value with AMPK in HeLa cells was “failed to increase”. In addition, the “activity of PP2C” value at PP2Ca is recorded as “without inhibiting the activity of PP2C”. Besides, the “blood lactate levels after endurance test” value in the data set on aged, lean B6 mice was “significantly reducing the increase in blood lactate levels”. For the same molecule, the “endurance capacity (running distance to exhaustion)” value with aged, lean B6 mice (vs vehicle) was “significantly improved endurance capacity”. For the same molecule, the “blood pressure (systolic and diastolic)” value with conscious beagle dogs is “acutely reduced blood pressure”. In data set [2], the “levels of pAMPK (p-T172)” value was “increased” and the “p-S79 ACC (pACC) levels” value is “increased”.

The values above are taken from patent publication US20220023269A1, “Methods Of Treating Diabetes In Severe Insulin-Resistant Diabetic Subjects” (Balticgruppen Bio AB, priority 2018, published 2022).
